These results are taken from ChEMBL document CHEMBL3881524, “Use of benzothiazepines having activity as inhibitors of ileal bile acid transport for reducing cholesterololemia” (2005).

Common to all, as to format: functional
Assay [1] has as its system Mus musculus. The assay can be described thus: Effect on plasma triglyceride level in LDL receptor/ApoE deficient mouse at 10 umol/kg/day dosed via gavage route once daily in afternoon for first three days and in morning the last day relative to untreated control.
Assay [2] relates to Mus musculus. The assay can be described thus: Effect on plasma triglyceride level in LDL receptor/ApoE deficient mouse at 10 umol/kg/day dosed via gavage route and co-administered with 80 to 100 mg/kg/day mixed with R3 chow diet for 7 days relative to untreated control.
Assay [3] concerns Mus musculus. In words: Reduction in plasma total cholesterol level in LDL receptor/ApoE deficient mouse at […] dosed via gavage route once daily in afternoon for first three days and in morning the last day by FPLC method relative to untreated control. The arrangement: scale not given: the % may be the effect or the level left.
Assay [4] concerns Mus musculus. The assay can be described thus: Effect on plasma HDL level in LDL receptor/ApoE deficient mouse at 10 umol/kg/day dosed via gavage route once daily in afternoon for first three days and in morning the last day by FPLC method relative to untreated control.
Assay [5] has as its system Mus musculus. In words: Reduction in plasma cholesterol in LP-remnants plus LDL/HDL ratio level in LDL receptor/ApoE deficient mouse at 10 umol/kg/day dosed via gavage route once daily in afternoon for first three days and in morning the last day by FPLC method relative to untreated control. Set-up: scale not given: the % may be the effect or the level left.
For assay [6], the system named is Mus musculus. In words: Reduction in plasma total cholesterol level in LDL receptor/ApoE deficient mouse at 10 umol/kg/day dosed via gavage route once daily in afternoon for first three days and in morning the last day by FPLC method relative to untreated control. Set-up: scale not given: the % may be the effect or the level left.
Assay [7] deals with Mus musculus. The assay can be described thus: Reduction in plasma total cholesterol level in LDL receptor/ApoE deficient mouse at 0.625 umol/kg/day dosed via gavage route once daily in afternoon for first three days and in morning the last day by FPLC method relative to untreated control. Set-up: scale not given: the % may be the effect or the level left.
In assay [8] the test system is Mus musculus. The assay can be described thus: Reduction in plasma cholesterol in LP-remnants in LDL receptor/ApoE deficient mouse at 10 umol/kg/day dosed via gavage route once daily in afternoon for first three days and in morning the last day by FPLC method relative to untreated control. The arrangement: scale not given: the % may be the effect or the level left.

The test system of assay [9] is Mus musculus. The assay can be described thus: Effect on plasma HDL level in LDL receptor/ApoE deficient mouse at 10 umol/kg/day dosed via gavage route and co-administered with 80 to 100 mg/kg/day mixed with R3 chow diet for 7 days relative to untreated control.
Assay [10] concerns Mus musculus. The assay can be described thus: Reduction in plasma LDL level in LDL receptor/ApoE deficient mouse at 10 umol/kg/day dosed via gavage route once daily in afternoon for first three days and in morning the last day by FPLC method relative to untreated control. The arrangement: scale not given: the % may be the effect or the level left.
Assay [11] deals with Mus musculus. The assay can be described thus: Reduction in plasma cholesterol in LP-remnants in LDL receptor/ApoE deficient mouse at 10 umol/kg/day dosed via gavage route and co-administered with 80 to 100 mg/kg/day mixed with R3 chow diet for 7 days relative to untreated control. The arrangement: scale not given: the % may be the effect or the level left.
Assay [12] deals with Mus musculus. The assay can be described thus: Reduction in plasma LDL level in LDL receptor/ApoE deficient mouse at 10 umol/kg/day dosed via gavage route and co-administered with 80 to 100 mg/kg/day mixed with R3 chow diet for 7 days relative to untreated control. Set-up: scale not given: the % may be the effect or the level left.
Assay [13] deals with Mus musculus. In words: Reduction in plasma total cholesterol level in LDL receptor/ApoE deficient mouse at 10 umol/kg/day dosed via gavage route and co-administered with 80 to 100 mg/kg/day mixed with R3 chow diet for 7 days relative to untreated control. Set-up: scale not given: the % may be the effect or the level left.
In assay [14] the test system is Mus musculus. In words: Reduction in plasma cholesterol in LP-remnants plus LDL/HDL ratio level in LDL receptor/ApoE deficient mouse at 10 umol/kg/day dosed via gavage route and co-administered with 80 to 100 mg/kg/day mixed with R3 chow diet for 7 days relative to untreated control. Set-up: scale not given: the % may be the effect or the level left.
Assay [15] relates to Mus musculus. In words: Reduction in plasma LDL level in LDL receptor/ApoE deficient mouse at […] dosed via gavage route once daily in afternoon for first three days and in morning the last day by FPLC method relative to untreated control. Set-up: scale not given: the % may be the effect or the level left.
Assay [16] has as its system Mus musculus. In words: Effect on plasma HDL level in LDL receptor/ApoE deficient mouse at 80 to 100 mg/kg/day mixed with R3 chow diet by FPLC method relative to untreated control.
The test system of assay [17] is Mus musculus. The assay can be described thus: Reduction in plasma LDL level in LDL receptor/ApoE deficient mouse at 80 to 100 mg/kg/day mixed with R3 chow diet by FPLC method relative to untreated control. The arrangement: scale not given: the % may be the effect or the level left.

As to `CCCC[C@]1(CC)CS(=O)(=O)c2cc(O[C@@H]3O[C@H](C(=O)O)[C@@H](O)[C@H](O)[C@H]3O)ccc2[C@@H](c2ccccc2)N1`, the Activity is 7 - 23% in the assay on Mus musculus [1]; 43% with Mus musculus [2]; 28% in the assay with Mus musculus [3]; 22 - 36% in the assay on Mus musculus [4]; 54 - 55% in the assay with Mus musculus [5]; 35 - 42% in the assay on Mus musculus [6]. The Activity in the assay on Mus musculus [7] is 9%; with Mus musculus [8], 54 - 62%; in the assay on Mus musculus [9], 15%; in the assay on Mus musculus [10] it was 20 - 29%; in the assay on Mus musculus [11] it was 69%; in the assay with Mus musculus [12], 64%. The Activity in the assay on Mus musculus [13] was determined as 64%; in the assay with Mus musculus [14] it was 71%; with Mus musculus [15], 14%.

For the compound `CC(C)c1c(C(=O)Nc2ccccc2)c(-c2ccccc2)c(-c2ccc(F)cc2)n1CC[C@@H](O)C[C@@H](O)CC(=O)[O-].CC(C)c1c(C(=O)Nc2ccccc2)c(-c2ccccc2)c(-c2ccc(F)cc2)n1CC[C@@H](O)C[C@@H](O)CC(=O)[O-].[Ca+2]` [ATORVASTATIN CALCIUM], the Activity worked out at 22% in the assay on Mus musculus [16] and 43% in the assay on Mus musculus [17].
